{"source": "paper PMC9067983", "about": "“Identification of highly selective type II kinase inhibitors with chiral peptidomimetic tails” (Journal of Enzyme Inhibition and Medicinal Chemistry, 2022)", "assay_in_all_cases": "kinase selectivity profiling", "assay_type_in_all_cases": "biochemical", "conditions_in_all_cases": "10µM ATP, read-out: % inhibition (relative to DMSO)", "key": {"SBK1": {"biological_target": "T1, SBK1 (Homo sapiens, UniProt Q52WX2)", "T1 construct": "purchased Reaction Biology Corp", "method": "(§1) Full panel kinase profiling and kinase IC50 measurement were performed by using Reaction Biology Corp. (San Diego, USA)."}, "MLK4": {"biological_target": "T2, MLK4 (Homo sapiens, UniProt Q5TCX8)", "T2 construct": "purchased Reaction Biology Corp", "method": "as §1"}, "PIM2": {"biological_target": "T3, PIM2 (Homo sapiens, UniProt Q9P1W9)", "T3 construct": "purchased Reaction Biology Corp", "method": "as §1"}, "CK1g1": {"biological_target": "T4, CK1g1 (Homo sapiens, UniProt Q9HCP0)", "T4 construct": "purchased Reaction Biology Corp", "method": "as §1"}, "DLK/MAP3K12": {"biological_target": "T5, DLK/MAP3K12 (Homo sapiens, UniProt Q12852)", "T5 construct": "purchased Reaction Biology Corp", "method": "as §1"}, "GLK/MAP4K3": {"biological_target": "T6, GLK/MAP4K3 (Homo sapiens, UniProt Q8IVH8)", "T6 construct": "purchased Reaction Biology Corp", "method": "as §1"}, "MELK": {"biological_target": "T7, MELK (Homo sapiens, UniProt Q14680)", "T7 construct": "purchased Reaction Biology Corp", "T7 sequence (Q14680 whole entry)": "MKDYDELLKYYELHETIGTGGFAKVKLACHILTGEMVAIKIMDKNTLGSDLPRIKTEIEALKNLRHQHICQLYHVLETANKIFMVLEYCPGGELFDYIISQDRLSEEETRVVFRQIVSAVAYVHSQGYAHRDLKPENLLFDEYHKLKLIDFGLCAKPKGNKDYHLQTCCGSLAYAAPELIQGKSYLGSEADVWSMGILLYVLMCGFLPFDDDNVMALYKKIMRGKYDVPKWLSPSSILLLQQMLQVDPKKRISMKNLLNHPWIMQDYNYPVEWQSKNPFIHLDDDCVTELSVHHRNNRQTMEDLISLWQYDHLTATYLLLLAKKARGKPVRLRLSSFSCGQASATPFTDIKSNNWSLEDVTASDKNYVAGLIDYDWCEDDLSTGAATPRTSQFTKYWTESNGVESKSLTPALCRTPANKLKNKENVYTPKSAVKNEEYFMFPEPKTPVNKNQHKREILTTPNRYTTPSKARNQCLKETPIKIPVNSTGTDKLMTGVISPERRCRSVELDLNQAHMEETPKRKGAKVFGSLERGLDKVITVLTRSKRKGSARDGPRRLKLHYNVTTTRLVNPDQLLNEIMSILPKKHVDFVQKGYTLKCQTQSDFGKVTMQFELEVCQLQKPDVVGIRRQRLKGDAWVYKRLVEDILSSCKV", "method": "as §1"}, "STK16": {"biological_target": "T8, STK16 (Homo sapiens, UniProt O75716)", "T8 construct": "purchased Reaction Biology Corp", "T8 sequence (O75716 whole entry)": "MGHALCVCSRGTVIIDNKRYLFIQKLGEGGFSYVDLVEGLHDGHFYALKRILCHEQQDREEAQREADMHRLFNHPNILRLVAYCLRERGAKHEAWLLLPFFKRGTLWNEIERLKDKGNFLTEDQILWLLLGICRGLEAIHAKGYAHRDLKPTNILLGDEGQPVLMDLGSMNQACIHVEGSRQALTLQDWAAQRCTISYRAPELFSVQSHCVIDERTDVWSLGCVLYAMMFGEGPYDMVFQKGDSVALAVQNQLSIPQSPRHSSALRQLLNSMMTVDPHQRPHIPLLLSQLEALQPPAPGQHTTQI", "method": "as §1"}, "PHKg2": {"biological_target": "T9, PHKg2 (Homo sapiens, UniProt P15735)", "T9 construct": "purchased Reaction Biology Corp", "T9 sequence (P15735 whole entry)": "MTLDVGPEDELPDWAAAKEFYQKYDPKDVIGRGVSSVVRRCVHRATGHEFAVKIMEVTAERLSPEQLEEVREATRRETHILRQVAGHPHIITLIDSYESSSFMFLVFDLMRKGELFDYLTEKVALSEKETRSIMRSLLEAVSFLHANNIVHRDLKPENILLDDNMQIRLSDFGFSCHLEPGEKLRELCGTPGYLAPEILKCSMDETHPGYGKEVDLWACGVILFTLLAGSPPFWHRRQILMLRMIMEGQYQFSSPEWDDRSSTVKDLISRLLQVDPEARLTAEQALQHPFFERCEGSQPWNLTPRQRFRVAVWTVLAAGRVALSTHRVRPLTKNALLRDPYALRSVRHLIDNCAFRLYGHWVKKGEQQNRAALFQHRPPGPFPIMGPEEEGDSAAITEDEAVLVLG", "method": "as §1"}, "TNK1": {"biological_target": "T10, TNK1 (Homo sapiens, UniProt Q13470)", "T10 construct": "purchased Reaction Biology Corp", "method": "as §1"}, "PDK1/PDPK1": {"biological_target": "T11, PDK1/PDPK1 (Homo sapiens, UniProt O15530)", "T11 construct": "purchased Reaction Biology Corp", "method": "as §1"}, "TSSK3/STK22C": {"biological_target": "T12, TSSK3/STK22C (Homo sapiens, UniProt Q96PN8)", "T12 construct": "purchased Reaction Biology Corp", "method": "as §1"}, "CDK9/cyclin T2": {"biological_target": "T13, CDK9/cyclin T2 (Homo sapiens, UniProt P50750)", "T13 construct": "purchased Reaction Biology Corp", "method": "as §1"}, "STK32C/YANK3": {"biological_target": "T14, STK32C/YANK3 (Homo sapiens, UniProt Q86UX6)", "T14 construct": "purchased Reaction Biology Corp", "method": "as §1"}, "ERK2/MAPK1": {"biological_target": "T15, ERK2/MAPK1 (Homo sapiens, UniProt P28482)", "T15 construct": "purchased Reaction Biology Corp", "method": "as §1"}, "PKD2/PRKD2": {"biological_target": "T16, PKD2/PRKD2 (Homo sapiens, UniProt Q9BZL6)", "T16 construct": "purchased Reaction Biology Corp", "method": "as §1"}, "SNRK": {"biological_target": "T17, SNRK (Homo sapiens, UniProt Q9NRH2)", "T17 construct": "purchased Reaction Biology Corp", "method": "as §1"}, "ERBB4/HER4": {"biological_target": "T18, ERBB4/HER4 (Homo sapiens, UniProt Q15303)", "T18 construct": "purchased Reaction Biology Corp", "method": "as §1"}, "ERK5/MAPK7": {"biological_target": "T19, ERK5/MAPK7 (Homo sapiens, UniProt Q13164)", "T19 construct": "purchased Reaction Biology Corp", "method": "as §1"}, "CDK9/cyclin K": {"biological_target": "T20, CDK9/cyclin K (Homo sapiens, UniProt P50750)", "T20 construct": "purchased Reaction Biology Corp", "method": "as §1"}, "PAK1": {"biological_target": "T21, PAK1 (Homo sapiens, UniProt Q13153)", "T21 construct": "purchased Reaction Biology Corp", "method": "as §1"}, "c-MER": {"biological_target": "T22, c-MER (Homo sapiens, UniProt Q12866)", "T22 construct": "purchased Reaction Biology Corp", "method": "as §1"}, "PKMYT1": {"biological_target": "T23, PKMYT1 (Homo sapiens, UniProt Q99640)", "T23 construct": "purchased Reaction Biology Corp", "method": "as §1"}, "CDK5/p35": {"biological_target": "T24, CDK5/p35 (Homo sapiens, UniProt Q00535)", "T24 construct": "purchased Reaction Biology Corp", "method": "as §1"}, "TAOK2/TAO1": {"biological_target": "T25, TAOK2/TAO1 (Homo sapiens, UniProt Q9UL54)", "T25 construct": "purchased Reaction Biology Corp", "method": "as §1"}, "MAK": {"biological_target": "T26, MAK (Homo sapiens, UniProt P20794)", "T26 construct": "purchased Reaction Biology Corp", "method": "as §1"}, "DMPK": {"biological_target": "T27, DMPK (Homo sapiens, UniProt Q09013)", "T27 construct": "purchased Reaction Biology Corp", "method": "as §1"}, "MAPKAPK5/PRAK": {"biological_target": "T28, MAPKAPK5/PRAK (Homo sapiens, UniProt Q8IW41)", "T28 construct": "purchased Reaction Biology Corp", "method": "as §1"}, "MYLK4": {"biological_target": "T29, MYLK4 (Homo sapiens, UniProt Q86YV6)", "T29 construct": "purchased Reaction Biology Corp", "T29 sequence (Q86YV6 whole entry)": "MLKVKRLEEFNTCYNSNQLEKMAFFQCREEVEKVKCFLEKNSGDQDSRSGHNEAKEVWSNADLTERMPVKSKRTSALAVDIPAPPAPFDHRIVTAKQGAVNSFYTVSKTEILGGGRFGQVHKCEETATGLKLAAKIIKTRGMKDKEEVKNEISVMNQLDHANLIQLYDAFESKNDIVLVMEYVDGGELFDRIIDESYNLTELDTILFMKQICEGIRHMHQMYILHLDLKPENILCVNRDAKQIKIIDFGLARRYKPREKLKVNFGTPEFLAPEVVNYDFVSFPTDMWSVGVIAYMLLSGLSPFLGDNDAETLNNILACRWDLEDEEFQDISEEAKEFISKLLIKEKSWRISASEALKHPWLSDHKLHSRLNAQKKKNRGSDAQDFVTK", "method": "as §1"}, "MLK1/MAP3K9": {"biological_target": "T30, MLK1/MAP3K9 (Homo sapiens, UniProt P80192)", "T30 construct": "purchased Reaction Biology Corp", "T30 sequence (P80192 whole entry)": "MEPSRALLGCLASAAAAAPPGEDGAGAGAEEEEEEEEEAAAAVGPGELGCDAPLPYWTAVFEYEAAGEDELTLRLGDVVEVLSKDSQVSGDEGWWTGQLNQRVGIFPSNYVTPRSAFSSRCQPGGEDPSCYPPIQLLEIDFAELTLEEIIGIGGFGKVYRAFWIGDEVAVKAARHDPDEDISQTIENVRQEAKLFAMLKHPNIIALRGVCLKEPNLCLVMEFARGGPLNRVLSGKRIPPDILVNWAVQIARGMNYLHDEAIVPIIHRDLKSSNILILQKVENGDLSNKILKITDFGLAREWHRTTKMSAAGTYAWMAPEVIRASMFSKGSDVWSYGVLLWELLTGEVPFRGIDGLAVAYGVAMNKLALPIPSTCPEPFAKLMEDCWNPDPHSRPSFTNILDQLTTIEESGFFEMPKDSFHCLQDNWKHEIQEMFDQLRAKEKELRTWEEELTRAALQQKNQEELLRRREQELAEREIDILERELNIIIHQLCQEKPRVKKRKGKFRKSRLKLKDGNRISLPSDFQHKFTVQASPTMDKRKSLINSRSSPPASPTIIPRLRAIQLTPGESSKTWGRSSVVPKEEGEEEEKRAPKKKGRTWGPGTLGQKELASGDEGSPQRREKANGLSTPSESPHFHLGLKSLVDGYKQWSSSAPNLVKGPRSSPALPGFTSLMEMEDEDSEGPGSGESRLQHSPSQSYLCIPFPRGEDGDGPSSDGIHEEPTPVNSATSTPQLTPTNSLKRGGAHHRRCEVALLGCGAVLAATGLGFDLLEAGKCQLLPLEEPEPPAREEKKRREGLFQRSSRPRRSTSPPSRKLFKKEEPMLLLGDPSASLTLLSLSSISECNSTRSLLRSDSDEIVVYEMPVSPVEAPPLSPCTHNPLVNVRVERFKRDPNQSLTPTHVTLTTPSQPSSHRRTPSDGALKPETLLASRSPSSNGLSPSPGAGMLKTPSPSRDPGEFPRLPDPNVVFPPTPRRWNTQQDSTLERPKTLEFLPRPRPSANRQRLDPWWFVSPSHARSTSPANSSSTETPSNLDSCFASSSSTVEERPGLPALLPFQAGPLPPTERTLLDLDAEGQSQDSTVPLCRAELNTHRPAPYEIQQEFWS", "method": "as §1"}, "ULK1": {"biological_target": "T31, ULK1 (Homo sapiens, UniProt O75385)", "T31 construct": "purchased Reaction Biology Corp", "method": "as §1"}, "MEK5": {"biological_target": "T32, MEK5 (Homo sapiens, UniProt Q13163)", "T32 construct": "purchased Reaction Biology Corp", "T32 sequence (Q13163 whole entry)": "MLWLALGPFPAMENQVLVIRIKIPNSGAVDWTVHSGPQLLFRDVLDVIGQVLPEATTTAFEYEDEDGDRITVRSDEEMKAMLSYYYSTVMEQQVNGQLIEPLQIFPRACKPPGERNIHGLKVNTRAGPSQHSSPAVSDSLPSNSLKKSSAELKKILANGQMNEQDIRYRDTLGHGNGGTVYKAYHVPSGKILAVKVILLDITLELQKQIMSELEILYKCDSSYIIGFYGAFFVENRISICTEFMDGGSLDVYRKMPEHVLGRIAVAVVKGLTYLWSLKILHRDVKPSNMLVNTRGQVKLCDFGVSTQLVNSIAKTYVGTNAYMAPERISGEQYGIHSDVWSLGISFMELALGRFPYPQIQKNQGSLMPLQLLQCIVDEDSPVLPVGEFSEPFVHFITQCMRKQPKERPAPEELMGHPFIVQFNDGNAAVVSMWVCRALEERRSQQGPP", "method": "as §1"}, "NEK8": {"biological_target": "T33, NEK8 (Homo sapiens, UniProt Q86SG6)", "T33 construct": "purchased Reaction Biology Corp", "T33 sequence (Q86SG6 whole entry)": "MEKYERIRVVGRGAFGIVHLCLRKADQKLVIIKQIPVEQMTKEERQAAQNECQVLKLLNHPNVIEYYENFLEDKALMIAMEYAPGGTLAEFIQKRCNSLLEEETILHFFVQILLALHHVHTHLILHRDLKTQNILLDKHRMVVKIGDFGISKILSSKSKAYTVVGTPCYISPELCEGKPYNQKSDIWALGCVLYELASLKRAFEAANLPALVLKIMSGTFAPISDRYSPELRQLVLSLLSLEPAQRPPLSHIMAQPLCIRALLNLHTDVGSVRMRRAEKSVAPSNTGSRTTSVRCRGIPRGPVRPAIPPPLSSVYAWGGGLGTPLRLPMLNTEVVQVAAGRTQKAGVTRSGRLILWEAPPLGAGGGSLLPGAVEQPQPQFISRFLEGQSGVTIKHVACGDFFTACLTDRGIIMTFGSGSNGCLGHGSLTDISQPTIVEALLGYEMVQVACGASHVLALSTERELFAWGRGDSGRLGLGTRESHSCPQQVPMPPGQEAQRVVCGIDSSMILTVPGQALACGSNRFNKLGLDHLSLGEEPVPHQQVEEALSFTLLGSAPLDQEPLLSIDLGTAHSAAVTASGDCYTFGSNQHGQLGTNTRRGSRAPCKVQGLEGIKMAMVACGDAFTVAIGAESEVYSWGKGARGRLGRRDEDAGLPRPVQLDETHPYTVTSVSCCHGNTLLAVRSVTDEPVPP", "method": "as §1"}, "CAMK2b": {"biological_target": "T34, CAMK2b (Homo sapiens, UniProt Q13554)", "T34 construct": "purchased Reaction Biology Corp", "method": "as §1"}, "LOK/STK10": {"biological_target": "T35, LOK/STK10 (Homo sapiens, UniProt O94804)", "T35 construct": "purchased Reaction Biology Corp", "method": "as §1"}, "IRAK4": {"biological_target": "T36, IRAK4 (Homo sapiens, UniProt Q9NWZ3)", "T36 construct": "purchased Reaction Biology Corp", "T36 sequence (Q9NWZ3 whole entry)": "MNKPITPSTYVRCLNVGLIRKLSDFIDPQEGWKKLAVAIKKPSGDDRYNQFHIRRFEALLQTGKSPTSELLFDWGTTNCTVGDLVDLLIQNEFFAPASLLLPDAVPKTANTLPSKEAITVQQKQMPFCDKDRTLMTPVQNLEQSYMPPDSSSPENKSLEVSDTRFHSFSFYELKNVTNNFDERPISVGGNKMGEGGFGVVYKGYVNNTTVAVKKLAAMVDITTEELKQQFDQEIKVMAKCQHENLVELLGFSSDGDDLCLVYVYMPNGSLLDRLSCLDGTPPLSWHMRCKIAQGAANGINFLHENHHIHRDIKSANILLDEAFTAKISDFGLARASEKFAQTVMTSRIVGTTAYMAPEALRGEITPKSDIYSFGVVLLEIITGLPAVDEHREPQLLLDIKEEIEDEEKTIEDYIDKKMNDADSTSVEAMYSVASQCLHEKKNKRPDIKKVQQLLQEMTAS", "method": "as §1"}, "MEK3": {"biological_target": "T37, MEK3 (Homo sapiens, UniProt P46734)", "T37 construct": "purchased Reaction Biology Corp", "T37 sequence (P46734 whole entry)": "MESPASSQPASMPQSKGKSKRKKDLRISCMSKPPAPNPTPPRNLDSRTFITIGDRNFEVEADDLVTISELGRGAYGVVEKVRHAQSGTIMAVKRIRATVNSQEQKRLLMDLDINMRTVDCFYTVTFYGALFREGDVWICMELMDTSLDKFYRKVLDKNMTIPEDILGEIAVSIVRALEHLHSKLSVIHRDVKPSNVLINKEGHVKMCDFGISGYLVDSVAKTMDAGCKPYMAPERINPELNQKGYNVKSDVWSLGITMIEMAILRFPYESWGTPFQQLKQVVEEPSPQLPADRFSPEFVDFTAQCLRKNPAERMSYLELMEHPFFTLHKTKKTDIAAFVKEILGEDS", "method": "as §1"}, "CAMK2a": {"biological_target": "T38, CAMK2a (Homo sapiens, UniProt Q9UQM7)", "T38 construct": "purchased Reaction Biology Corp", "method": "as §1"}, "TEC": {"biological_target": "T39, TEC (Homo sapiens, UniProt P42680)", "T39 construct": "purchased Reaction Biology Corp", "method": "as §1"}, "WNK2": {"biological_target": "T40, WNK2 (Homo sapiens, UniProt Q9Y3S1)", "T40 construct": "purchased Reaction Biology Corp", "method": "as §1"}, "PKCeta": {"biological_target": "T41, PKCeta (Homo sapiens, UniProt P24723)", "T41 construct": "purchased Reaction Biology Corp", "method": "as §1"}, "GRK2": {"biological_target": "T42, GRK2 (Homo sapiens, UniProt P25098)", "T42 construct": "purchased Reaction Biology Corp", "method": "as §1"}, "EPHA8": {"biological_target": "T43, EPHA8 (Homo sapiens, UniProt P29322)", "T43 construct": "purchased Reaction Biology Corp", "method": "as §1"}}, "note": "Where a SMILES comes first, the peptide text is derived from it. [ ]: non-standard residue; d: D form. The star is where a group is joined. X1 = Cc1ccc(Nc2ncc3c(n2)N(C)C(=O)N(c2cc(C(=O)*)ccc2C)C3)cn1; Aib = CC(C)(N)C(=O)O", "data": [{"smiles": "Cc1ccc(Nc2ncc3c(n2)N(C)C(=O)N(c2cc(C(=O)N[C@H](C(=O)N4CCC[C@H]4C(=O)NC(C)(C)C(=O)N[C@@H](CC(C)C)C(=O)N(C)C)C(C)C)ccc2C)C3)cn1", "note": "[7a, (S)-N-(1-(((S)-1-(dimethylamino)-4-methyl-1-oxopentan-2-yl)amino)-2-methyl-1-oxopropan-2-yl)-1-((4-methyl-3-(1-methyl-7-((6-methylpyridin-3-yl)amino)-2-oxo-1,4-dihydropyrimido[4,5-d]pyrimidin-3(2H)-yl)benzoyl)-L-valyl)pyrrolidine-2-carboxamide] (X1-VP[Aib]L-NMe2)", "values": [{"measurement": "inhibition at 1 µM", "setting": "SBK1", "result": 0, "unit": "%"}, {"measurement": "inhibition at 1 µM", "setting": "MLK4", "result": 7, "unit": "%"}, {"measurement": "inhibition at 1 µM", "setting": "PIM2", "result": 0, "unit": "%"}, {"measurement": "inhibition at 1 µM", "setting": "CK1g1", "result": 0, "unit": "%"}, {"measurement": "inhibition at 1 µM", "setting": "DLK/MAP3K12", "result": 0, "unit": "%"}, {"measurement": "inhibition at 1 µM", "setting": "GLK/MAP4K3", "result": 9, "unit": "%"}, {"measurement": "inhibition at 1 µM", "setting": "MELK", "result": 4, "unit": "%"}, {"measurement": "inhibition at 1 µM", "setting": "STK16", "result": 0, "unit": "%"}, {"measurement": "inhibition at 1 µM", "setting": "PHKg2", "result": 0, "unit": "%"}, {"measurement": "inhibition at 1 µM", "setting": "TNK1", "result": 2, "unit": "%"}, {"measurement": "inhibition at 1 µM", "setting": "PDK1/PDPK1", "result": 1, "unit": "%"}, {"measurement": "inhibition at 1 µM", "setting": "TSSK3/STK22C", "result": 3, "unit": "%"}, {"measurement": "inhibition at 1 µM", "setting": "CDK9/cyclin T2", "result": 0, "unit": "%"}, {"measurement": "inhibition at 1 µM", "setting": "STK32C/YANK3", "result": 2, "unit": "%"}, {"measurement": "inhibition at 1 µM", "setting": "ERK2/MAPK1", "result": 0, "unit": "%"}, {"measurement": "inhibition at 1 µM", "setting": "PKD2/PRKD2", "result": 0, "unit": "%"}, {"measurement": "inhibition at 1 µM", "setting": "SNRK", "result": 9, "unit": "%"}, {"measurement": "inhibition at 1 µM", "setting": "ERBB4/HER4", "result": 53, "unit": "%"}, {"measurement": "inhibition at 1 µM", "setting": "ERK5/MAPK7", "result": 5, "unit": "%"}, {"measurement": "inhibition at 1 µM", "setting": "CDK9/cyclin K", "result": 0, "unit": "%"}, {"measurement": "inhibition at 1 µM", "setting": "PAK1", "result": 5, "unit": "%"}, {"measurement": "inhibition at 1 µM", "setting": "c-MER", "result": 1, "unit": "%"}, {"measurement": "inhibition at 1 µM", "setting": "PKMYT1", "result": 8, "unit": "%"}, {"measurement": "inhibition at 1 µM", "setting": "CDK5/p35", "result": 6, "unit": "%"}, {"measurement": "inhibition at 1 µM", "setting": "TAOK2/TAO1", "result": 4, "unit": "%"}, {"measurement": "inhibition at 1 µM", "setting": "MAK", "result": 0, "unit": "%"}, {"measurement": "inhibition at 1 µM", "setting": "DMPK", "result": 0, "unit": "%"}, {"measurement": "inhibition at 1 µM", "setting": "MAPKAPK5/PRAK", "result": 8, "unit": "%"}, {"measurement": "inhibition at 1 µM", "setting": "MYLK4", "result": 8, "unit": "%"}, {"measurement": "inhibition at 1 µM", "setting": "MLK1/MAP3K9", "result": 33, "unit": "%"}, {"measurement": "inhibition at 1 µM", "setting": "ULK1", "result": 0, "unit": "%"}, {"measurement": "inhibition at 1 µM", "setting": "MEK5", "result": 50, "unit": "%"}, {"measurement": "inhibition at 1 µM", "setting": "NEK8", "result": 1, "unit": "%"}, {"measurement": "inhibition at 1 µM", "setting": "CAMK2b", "result": 3, "unit": "%"}, {"measurement": "inhibition at 1 µM", "setting": "LOK/STK10", "result": 3, "unit": "%"}, {"measurement": "inhibition at 1 µM", "setting": "IRAK4", "result": 4, "unit": "%"}, {"measurement": "inhibition at 1 µM", "setting": "MEK3", "result": 0, "unit": "%"}, {"measurement": "inhibition at 1 µM", "setting": "CAMK2a", "result": 8, "unit": "%"}, {"measurement": "inhibition at 1 µM", "setting": "TEC", "result": 2, "unit": "%"}, {"measurement": "inhibition at 1 µM", "setting": "WNK2", "result": 7, "unit": "%"}, {"measurement": "inhibition at 1 µM", "setting": "PKCeta", "result": 27, "unit": "%"}, {"measurement": "inhibition at 1 µM", "setting": "GRK2", "result": 0, "unit": "%"}, {"measurement": "inhibition at 1 µM", "setting": "EPHA8", "result": 0, "unit": "%"}]}]}
